The record followed here is patent US6518262B1, “22R-hydroxycholesta-8, 14-diene derivatives for the inhibition of meiosis” (Akzo Nobel N.V., priority 1999, dated 2003).

This experiment deals with denuded oocytes (DO). The experiment in a line: Oocyte assay, antagonistic testing, inhibition of FF-Mas induced maturation in denuded oocytes (DO assay). Format: cell-based, mice (B6D2-F1, strain C57BL×DBA). The conditions noted are these: FF-Mas 5 μM, compound tested 5 μM, control (FF-Mas alone) in brackets. The method, then:
The meiosis inhibiting activity of the 22R-hydroxycholesta-8,14-diene derivatives of the invention is measured in an in vitro oocyte assay as the ability to inhibit the FF-Mas or 22S-hydroxy-FF-Mas induced maturation, in hypoxanthine media, in denuded oocytes (DO) or cumulus enclosed oocytes (CEO), respectively. Natural resumption of meiosis can be mimicked in vitro by addition of FF-Mas or other agonists to the culture medium containing hypoxanthine. The antagonistic activity of the compounds is measured as the ability to inhibit the FF-Mas or 22S-hydroxy-FF-Mas induced oocyte maturation in denuded oocytes or cumulus enclosed oocytes, respectively, in vitro. Ovaries are obtained from immature female mice (B6D2-F1, strain C57BL×DBA). At the age of 19, 20 or 21 days the mice are injected subcutaneously with a single dose of 20 IU follicle stimulating hormone (Humegon, Organon, The Netherlands) in saline. Forty-eight hours after follicle stimulating hormone injection mice are killed by cervical dislocation. The ovaries are removed, freed of extraneous tissue and placed in a multidish containing 0.5 ml preparation medium at 37° C. L-15 Leibovitz medium (Gibco, pH 7.3±0.1) supplemented with bovine serum albumin (3 mg·ml^−1), L-glutamine (0.23 mM), sodium pyruvate (2 mM) and hypoxanthine (4 mM) is used as preparation medium. The antral follicles of the ovaries are punctured under a dissecting microscope using two 27-gauge needles attached to two 1 ml syringes. […] At t=0 the number of oocytes with intact germinal vesicles (GV) or germinal vesicle break-down (GVBD) is counted under an inverted microscope with differential interference contrast equipment. […] At the end of the culture period the number of oocytes with GV or GVBD per group is counted. For statistical analysis the percentage germinal vesicle breakdown is calculated for each group in one block. These percentages are subjected to arcsin transformation, and differences between control and test compounds are analyzed by an ANOVA test for a randomized block design. […]

Regarding `CC(C)CC[C@@H](O)[C@@H](C)[C@H]1CC=C2C3=C(CC[C@@]21C)[C@@]1(C)CC[C@H](O)C(C)(C)[C@@H]1CC3` [Example 1, (3β,5α,20S,22R)-4,4-Dimethylcholesta-8,14-diene-3,22-diol], the “% GVBD DO assay exp.” value is on record as 0(55) %.
Under `CC(C)=CC[C@@H](O)[C@@H](C)[C@H]1CC=C2C3=C(CC[C@@]21C)[C@@]1(C)CC[C@H](O)C(C)(C)[C@@H]1CC3` [Example 2, (3β,5α,20S,22R)-4,4-Dimethylcholesta-8,14,24-triene-3,22-diol] stands 0(90) %.
